What was measured:
Settings in all cases: CHO cell membrane fraction, competition with [3H]-PGE2 2.5 nM
[1] = molecular target: T1, mouse EP1 receptor (Mus musculus, UniProt P35375); experiment: Binding assay using cell expressing the prostanoid receptor subtypes (EP1)
T1 construct: expressed in transfected cells; host or cells: CHO cells
T1 sequence (P35375 1-405): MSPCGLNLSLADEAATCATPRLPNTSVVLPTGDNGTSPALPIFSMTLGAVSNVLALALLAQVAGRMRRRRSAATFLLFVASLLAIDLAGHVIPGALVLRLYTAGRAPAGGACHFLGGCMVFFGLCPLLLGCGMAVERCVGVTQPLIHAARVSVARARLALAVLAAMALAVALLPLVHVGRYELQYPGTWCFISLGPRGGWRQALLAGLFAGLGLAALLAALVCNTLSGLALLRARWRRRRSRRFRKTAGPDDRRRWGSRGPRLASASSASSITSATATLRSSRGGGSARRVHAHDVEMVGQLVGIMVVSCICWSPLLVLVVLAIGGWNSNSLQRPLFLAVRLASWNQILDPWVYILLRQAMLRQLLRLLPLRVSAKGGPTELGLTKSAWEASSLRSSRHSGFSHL
Description: (§1) (i) Binding Assay Using Cell Expressing the Prostanoid Receptor Subtypes
(§2) The preparation of membrane fraction was carried out according to the method of Sugimoto et al [J. Biol. Chemical, 267, 6463-6466 (1992)], using CHO cell expressing prostanoid receptor subtypes (mouse EP1, EP2, EP3α, and EP4).
(§3) The standard assay mixture containing membrane fraction (50 μL), [^3H]—PGE2 in a final volume of 150 μL was incubated for 1 hour at room temperature. The reaction was terminated by addition of 3 mL of ice-cold buffer. The mixture was rapidly filtered through a glass filter (GF/B) under reduced pressure. The radioactivities associated with the filters were measured by liquid scintillation counter.
(§4) Kd and Bmax values were determined from Scatchard plots [Ann. N. Y. Acad. Sci. 51, 660(1949)]. Non-specific binding was determined as the amount bound in the presence of an excess (2.5 μM of unlabeled PGE2. In the experiment for competition of specific [^3H]—PGE2 binding assay, [^3H]—PGE2, was added at a concentration of 2.5 nM and a test compound of the present invention was added at various concentrations. The following buffer was used in all reactions.
(§5) Buffer: 10 mM potassium phosphate (pH 6.0), 1 mM EDTA, 10 mM MgCl2, 0.1 M NaCl.
(§6) The inhibition constant (Ki) (μM) of each compound was calculated by the following equation.

[2] = molecular target: T2, mouse EP2 receptor (Mus musculus, UniProt Q62053); experiment: Binding assay using cell expressing the prostanoid receptor subtypes (EP2)
T2 construct: expressed in transfected cells; host or cells: CHO cells
T2 sequence (Q62053 whole entry): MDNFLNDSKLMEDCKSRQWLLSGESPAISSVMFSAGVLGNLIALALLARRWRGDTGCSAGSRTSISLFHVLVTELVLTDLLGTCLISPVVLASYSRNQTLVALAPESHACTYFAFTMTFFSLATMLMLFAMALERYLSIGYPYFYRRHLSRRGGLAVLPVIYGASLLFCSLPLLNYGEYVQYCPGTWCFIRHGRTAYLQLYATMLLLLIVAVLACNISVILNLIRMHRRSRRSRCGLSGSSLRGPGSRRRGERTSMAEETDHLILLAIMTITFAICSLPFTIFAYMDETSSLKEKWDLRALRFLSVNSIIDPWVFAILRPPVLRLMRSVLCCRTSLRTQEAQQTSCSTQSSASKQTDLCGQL
Description: as §1, §2, §3, §4, §5, §6

[3] = molecular target: T3, mouse EP3α receptor (Mus musculus, UniProt P30557); experiment: Binding assay using cell expressing the prostanoid receptor subtypes (EP3)
T3 construct: expressed in transfected cells; host or cells: CHO cells
T3 sequence (P30557 1-365): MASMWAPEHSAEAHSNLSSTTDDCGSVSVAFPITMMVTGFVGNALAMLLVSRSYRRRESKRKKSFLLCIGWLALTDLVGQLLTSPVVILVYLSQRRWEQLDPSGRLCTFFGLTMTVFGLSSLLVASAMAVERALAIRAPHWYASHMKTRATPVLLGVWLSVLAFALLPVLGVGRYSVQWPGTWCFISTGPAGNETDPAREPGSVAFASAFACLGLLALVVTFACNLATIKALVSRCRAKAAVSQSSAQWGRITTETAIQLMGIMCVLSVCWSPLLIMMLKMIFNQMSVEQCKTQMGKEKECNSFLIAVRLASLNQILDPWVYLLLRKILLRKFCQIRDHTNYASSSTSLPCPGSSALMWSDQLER
Description: as §1, §2, §3, §4, §5, §6

[4] = molecular target: T4, mouse EP4 receptor (Mus musculus, UniProt P32240); experiment: Binding assay using cell expressing the prostanoid receptor subtypes (EP4)
T4 construct: expressed in transfected cells; host or cells: CHO cells
T4 sequence (P32240 whole entry): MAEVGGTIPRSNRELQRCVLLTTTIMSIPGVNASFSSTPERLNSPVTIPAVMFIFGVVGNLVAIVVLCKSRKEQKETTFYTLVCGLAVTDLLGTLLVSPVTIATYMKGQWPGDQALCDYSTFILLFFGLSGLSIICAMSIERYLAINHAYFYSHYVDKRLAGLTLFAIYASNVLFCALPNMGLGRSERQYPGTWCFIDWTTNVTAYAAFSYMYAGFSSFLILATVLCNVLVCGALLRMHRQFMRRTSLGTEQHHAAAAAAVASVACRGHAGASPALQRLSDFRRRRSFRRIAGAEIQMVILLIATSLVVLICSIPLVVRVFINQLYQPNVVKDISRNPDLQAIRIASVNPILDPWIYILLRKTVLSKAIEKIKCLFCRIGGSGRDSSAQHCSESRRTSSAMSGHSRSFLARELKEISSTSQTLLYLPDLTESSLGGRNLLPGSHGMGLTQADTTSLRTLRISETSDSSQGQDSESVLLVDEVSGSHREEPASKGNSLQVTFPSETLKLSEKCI
Description: as §1, §2, §3, §4, §5, §6

CC(C(=O)Nc1ccccc1CCCC(=O)O)c1cccc2ccccc12 (stereo not shown) [Example 2, 4-[2-[2-(1-naphthyl)propanoylamino]phenyl]butanoic acid]
Ki [1]: > 10 µM
Ki [2]: > 10 µM
Ki [3]: 2.4 µM
Ki [4]: 0.3 µM

Reference: US6835752B2, “Carboxylic acid derivatives, processes for the preparation thereof and pharmaceutical agents comprising the same as active ingredient” (Ono Pharmaceutical Co., Ltd., priority 2000, dated 2004)
